Assays:
CDK2 [1] = biological target: T1, CDK2 (Homo sapiens, UniProt P24941); test: High-throughput HTRF measurement of cellular endogenous CDK2 level (degradation, DC50/Dmax) in OVCAR3 cells, 6 h; type: cell-based; details: 6 h compound treatment, HTRF total CDK2, read-out: DC50_OVCAR3_6h
T1 construct: High-Throughput Measurement of Cellular Endogenous CDK2; endogenous in cells; host or cells: OVCAR3
In short: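 DC50 and Dmax were derived by four-parameter logistic fit of the […] TR-FRET ratio, scaled between DMSO (0% degradation) and lysis buffer (100%) controls. The ratio came from an HTRF total-CDK2 sandwich immunoassay on lysates of OVCAR3 cells given 0.03–1,000 nM compound for 6 hours.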

CDK2 [2] = biological target: T1, CDK2; test: Inhibition of CDK2: phospho-Rb (S807/811) HTRF measurement in OVCAR3 cells, 24 h; type: cell-based; details: 24 h compound treatment, read-out: pRB_OVCAR3_24h
In short: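 IC50 came from a four-parameter fit of DMSO-normalized TR-FRET ratios (665/620 nm) reporting phospho-Rb S807/811. Lysates were taken from OVCAR3 cultures treated 24 h with compound (0.3 to 10,000 nM) and incubated 4 h at room temperature with the antibody pair.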

**Q.** With Cn1nc(N2CCC(=O)NC2=O)c2ccc(C3CCC(CN4CCN(c5cccc(S(=O)(=O)N6CCC(Nc7ncc(Cl)cn7)CC6)c5)CC4)CC3)cc21 (stereo not shown) [Example 224, 1-(6-(4-((4-(3-((4-((5-chloropyrimidin-2-yl)amino)piperidin-1-yl)sulfonyl)phenyl)piperazin-1-yl)methyl)cyclohexyl)-1-methyl-1H-indazol-3-yl)dihydropyrimidine-2,4(1H,3H)-dione] as the compound, how does the DC50 (CDK2 [1]) read?
**A.** 10 to 100 nM

**Q.** What about the IC50 (CDK2 [2]) of the same compound?
**A.** 1 to 100 nM

**Q.** Cn1nc(N2CCC(=O)NC2=O)c2ccc(C3CCN(CC#Cc4cccc(S(=O)(=O)N5CCC(Nc6ncc(Cl)cn6)CC5)c4)CC3)cc21 [Example 226, 1-(6-(1-(3-(3-((4-((5-chloropyrimidin-2-yl)amino)piperidin-1-yl)sulfonyl)phenyl)prop-2-yn-1-yl)piperidin-4-yl)-1-methyl-1H-indazol-3-yl)dihydropyrimidine-2,4(1H,3H)-dione] was tested. Which DC50 (CDK2 [1]) did it give?
**A.** 10 to 100 nM

**Q.** What about the IC50 (CDK2 [2]) of the same compound?
**A.** 100 to 500 nM

**Q.** With Cn1nc(N2CCC(=O)NC2=O)c2ccc(C3CCN(CC4CCN(c5cccc(S(=O)(=O)N6CCC(Nc7ncc(Cl)cn7)CC6)c5)C(=O)C4)CC3)cc21 (stereo not shown) [Example 234, 1-(6-(1-((1-(3-((4-((5-chloropyrimidin-2-yl)amino)piperidin-1-yl)sulfonyl)phenyl)-2-oxopiperidin-4-yl)methyl)piperidin-4-yl)-1-methyl-1H-indazol-3-yl)dihydropyrimidine-2,4(1H,3H)-dione] as the compound, how does the DC50 (CDK2 [1]) read?
**A.** 1 to 10 nM

**Q.** And the IC50 (CDK2 [2])?
**A.** 1 to 100 nM

**Q.** Which results are given for Cn1nc(N2CCC(=O)NC2=O)c2ccc(C3CCC(CN4CCC(c5cccc(S(=O)(=O)N6CCC(Nc7ncc(C(F)(F)F)cn7)CC6)c5)CC4)CC3)cc21 (stereo not shown) [Example 238, 1-(1-methyl-6-(4-((4-(3-((4-((5-(trifluoromethyl)pyrimidin-2-yl)amino)piperidin-1-yl)sulfonyl)phenyl)piperidin-1-yl)methyl)cyclohexyl)-1H-indazol-3-yl)dihydropyrimidine-2,4(1H,3H)-dione]?
**A.** DC50 (CDK2 [1]): 10 to 100 nM; IC50 (CDK2 [2]): 1 to 100 nM

**Q.** Which DC50 (CDK2 [1]) does the source give for Cn1nc(N2CCC(=S)NC2=O)c2ccc(C3CCN(CC4CCN(c5cccc(S(=O)(=O)N6CCC(Nc7ncc(Cl)cn7)CC6)c5)CC4)CC3)cc21 [Example 239, 1-(6-(1-((1-(3-((4-((5-chloropyrimidin-2-yl)amino)piperidin-1-yl)sulfonyl)phenyl)piperidin-4-yl)methyl)piperidin-4-yl)-1-methyl-1H-indazol-3-yl)-4-thioxotetrahydropyrimidin-2(1H)-one] here?
**A.** 10 to 100 nM

**Q.** What about the IC50 (CDK2 [2]) of the same compound?
**A.** 100 to 500 nM

**Q.** Cn1nc(N2CCC(=O)NC2=O)c2ccc(C3CCN(Cc4ccc(S(=O)(=O)N5CCC(Nc6ncc(OC(F)F)cn6)CC5)cc4)CC3)cc21 [Example 241, 1-(6-(1-(4-((4-((5-(difluoromethoxy)pyrimidin-2-yl)amino)piperidin-1-yl)sulfonyl)benzyl)piperidin-4-yl)-1-methyl-1H-indazol-3-yl)dihydropyrimidine-2,4(1H,3H)-dione] was tested. Which DC50 (CDK2 [1]) did it give?
**A.** 1 to 10 nM

**Q.** What about the IC50 (CDK2 [2]) of the same compound?
**A.** 1 to 100 nM

**Q.** Which DC50 (CDK2 [1]) does the source give for CC(C)c1cnc(NC2CCN(S(=O)(=O)c3cccc(N4CCC(CN5CCC(c6ccc7c(N8CCC(=O)NC8=O)nn(C)c7c6)CC5)CC4)c3)CC2)nc1 [Example 244, 1-(6-(1-((1-(3-((4-((5-isopropylpyrimidin-2-yl)amino)piperidin-1-yl)sulfonyl)phenyl)piperidin-4-yl)methyl)piperidin-4-yl)-1-methyl-1H-indazol-3-yl)dihydropyrimidine-2,4(1H,3H)-dione] here?
**A.** 1 to 10 nM

**Q.** And the IC50 (CDK2 [2])?
**A.** 1 to 100 nM

**Q.** With O=C1CCC(N2Cc3cc(N4CCC(CN5CCN(c6cccc(S(=O)(=O)N7CCC(Nc8ncc(Cl)cn8)CC7)c6)CC5)CC4)ccc3C2=O)C(=O)N1 (stereo not shown) [Example 247, 3-(5-(4-((4-(3-((4-((5-chloropyrimidin-2-yl)amino)piperidin-1-yl)sulfonyl)phenyl)piperazin-1-yl)methyl)piperidin-1-yl)-1-oxoisoindolin-2-yl)piperidine-2,6-dione] as the compound, how does the DC50 (CDK2 [1]) read?
**A.** 10 to 100 nM

**Q.** What about the IC50 (CDK2 [2]) of the same compound?
**A.** 1 to 100 nM

Reference: patent US20260167623A1 (NIKANG THERAPEUTICS, INC., priority 2022, published 2026)
